Reference: article PMC3138742 (PLoS ONE, 2011)

Columns and labels:
[1] = Pharmacokinetics after single oral dose; settings: dog, in vivo; dogs, single oral dose 90 mg/kg; unpublished data
A549 cells = test: Anchorage-independent growth on soft agar; format: cell-based, human; settings: two weeks
Method: The culture was maintained at 37°C in a 5% CO2 atmosphere for two weeks. The average colony number was calculated and colonies were photographed. […] Anchorage-independent cell transformation assay. Cell transformation was detected in SK-OV-3 and A549 cells, respectively. […] The culture were maintained in a 37°C, 5% CO2 incubator for 1-2 weeks, and the cell colonies were scored using a microscope and the Image-Pro PLUS computer software program (Media Cybernetics, Silver Spring, MD).

[2] = system: EGFR and ErbB2 phosphorylation in SK-OV-3 xenograft tumors; test: Pharmacodynamic effect in tumor extracts (Western blot); format: in vivo, nude mice; settings: SK-OV-3 tumors, single dose 100 mg/kg
Method: Tumors were harvested at indicated times (n = 3 per time point) after treatment, immediately frozen in liquid nitrogen, and then homogenized in 500 µL protein extraction solutions (SBS Genetech, Shanghai, China). Tumor extracts were subjected to SDS-PAGE followed by immunoblotting.
Body weights of the nude mice were measured concurrently (B). […] Tumors were harvested at the indicated times after treatment and immediately frozen in liquid nitrogen. Western blot analysis was performed to determine the levels of phosphorylated EGFR and ErbB2.

SK-OV-3 cells = test: Anchorage-independent growth on soft agar; format: cell-based, human; settings: two weeks
Method: The culture was maintained at 37°C in a 5% CO2 atmosphere for two weeks. The average colony number was calculated and colonies were photographed. Columns, mean of triplicate samples; bars, SE. Significant differences were evaluated using the Student's test (*P<0.05; ** P<0.01). (TIF) Click here for additional data file. Anchorage-independent cell transformation assay. Cell transformation was detected in SK-OV-3 and A549 cells, respectively. […] The culture were maintained in a 37°C, 5% CO2 incubator for 1-2 weeks, and the cell colonies were scored using a microscope and the Image-Pro PLUS computer software program (Media Cybernetics, Silver Spring, MD). Data are shown as means ± SD of values from triplicate experiments and the asterisk (*) indicates a significant (*P<0.05, ** P<0.01) decrease in colony number compared to untreated control.

[3] = system: phosphorylation of EGFR and downstream pathways in NCI-H1975 cells; test: Western blot of EGF-induced phosphorylation; format: cell-based, human
Method: The tyrosine kinase activities were determined using enzyme-linked immunosorbant assay (ELISA). The serine/threonine kinase activities were detected by Caliper Mobility Shift Assay on EZ Reader (Caliper Life Sciences, MA) according to the instruction.
Cell viability was determined using sulforhodamine B assay. IC50 values were determined based on the results of three independent experiments. […] Whole-cell lysates were assayed for total EGFR and phosphorylation of EGFR by immunoblotting. […] Cell viability was determined using sulforhodamine B assay.

[4] = Body weights in xenograft studies; format: in vivo; settings: nude mice, xenograft models, p.o. twice daily
Method: The mice were housed and maintained under specific-pathogen free (SPF) conditions. All animal procedures were performed according to the protocol approved by the Institutional Animal Care and Use Committee at Shanghai Institute of Materia Medica, Chinese Academy of Sciences (SIMM-AE-DJ-2010-01). Under sterile conditions, well-developed tumors were cut into 1-mm^3 fragments and transplanted s.c. into the right flank of nude mice using a trocar. When the tumor reached a volume reached 100 to 200 mm^3, the mice were randomly assigned into control and treatment groups. […] The sizes of the tumors were measured twice per week using microcalipers. The tumor volume (V) was calculated as follows: V = (length×width^2)/2. The body weights of the mice were observed simultaneously.

## C=CC(=O)Nc1ccc2ncnc(Nc3ccc(OCc4cccc(F)c4)c(Cl)c3)c2c1 [AST1306]
[1]
  half-life: < 2.3 h
A549 cells
  anchorage-independent growth on soft agar: dramatically inhibit the growth
[2]
  time to evident inhibition of EGFR and ErbB2 activation in tumors: ≤ 2 h
SK-OV-3 cells
  anchorage-independent growth on soft agar: dramatically inhibit the growth
[3]
  inhibition of phosphorylation of EGFR and downstream pathways: blocked phosphorylation of EGFR and downstream pathways
[4]
  body weights during treatment: no obvious differences
